Assay results reported in patent publication US20230212180A1, “SUBSTITUTED PYRAZINE COMPOUND, PHARMACEUTICAL COMPOSITION COMPRISING SAME, AND USE THEREOF” (Sichuan Kelun-Biotech Biopharmaceutical Co., Ltd., priority 2020, published 2023).

Columns and labels:
[1] = Pharmacokinetic (PK) studies in Balb/c mouse; assay type: in vivo; conditions: for AUC(0-t): read-out: AUClast; for half-life: read-out: T1/2 (converted)
Protocol: Test Example 7: Pharmacokinetic (PK) Studies in Balb/c Mouse
The compound of Example 12, Control Compound 1, Control Compound 2, and TNO-155 were administered to female Balb/c mice by intravenous injection (IV) and gavage (PO) respectively to estimate the pharmacokinetic properties. Dosing amounts for IV and PO routes were 1 mg/kg and 10 mg/kg, respectively. The solvent for IV route was 5% DMSO+5% Solutol+90% Saline, and the solvent for PO route was 0.5% MC (sodium methylcellulose). Blood was collected at various time points after IV and PO administration. The blood from the test groups of the compound of Example 12, Control Compound 1, and Control Compound 2 was anticoagulated using EDTA.K2 and preserved at −80° C. The blood from the test groups of TNO-155 was anticoagulated using EDTA.K2 and centrifuged to obtain plasma samples, and the plasma samples were preserved at −80° C.
The blood or plasma samples were subjected to protein precipitation and then to the LC-MS/MS analysis. WinNonlin 6.3 software was used to calculate the pharmacokinetic parameters by non-compartmental model, and the results were listed in Table 7 below.

[2] = Pharmacokinetic (PK) studies in beagle dog; assay type: in vivo; conditions: for AUC(0-t) / clearance / half-life: dog, male beagle dogs, plasma
Protocol: Test Example 8: Pharmacokinetic (PK) Studies in Beagle Dog
The compound of Example 12, Control Compound 1, Control Compound 2, and TNO-155 were administered to male beagle dogs by intravenous injection (IV) and gavage (PO) respectively to estimate the pharmacokinetic properties. Dosing amounts for IV and PO routes were 0.5 mg/kg and 2.5 mg/kg. The solvent for IV route was 5% DMSO+5% Solutol+90% Saline, and the solvent for PO route was 0.5% MC (sodium methylcellulose). Blood was collected at various time points after IV and PO administration. The blood was anticoagulated using EDTA.K2, and centrifuged to obtain plasma samples. The plasma samples were preserved at −80° C.
The plasma samples were subjected to protein precipitation and then to the LC-MS/MS analysis. WinNonlin 6.3 software was used to calculate the pharmacokinetic parameters by non-compartmental model, and the results were listed in Table 8 below.

CAMK1 (CaMK1) = biological target: T1, CAMK1 (CaMK1) (Homo sapiens, UniProt Q14012); assay: Kinase selectivity test (ThermoFisher); assay type: biochemical; design: concentration or dose not given beside the values
T1 construct: purchased ThermoFisher USA (contract testing)
Protocol: (§1) Test Example 11: Kinase Selectivity Test
(§2) 1. Experimental Purpose: Tests for selectivity of the compounds of the present disclosure for a plurality of kinases were carried out to assess the safety risk of the compounds of the present disclosure.
(§3) 2. Test institution: ThermoFisher USA
(§4) 3. Testing methods: LanthaScreen binding, Z′-LYTE, Adapta
(§5) 4. Test targets: 100 targets in total

CDK8/ cyclin C = biological target: T2, CDK8/ cyclin C (Homo sapiens, UniProt P49336); assay: Kinase selectivity test (ThermoFisher); assay type: biochemical; design: concentration or dose not given beside the values
T2 construct: purchased ThermoFisher USA (contract testing)
Protocol: as §1, §2, §3, §4, §5

GRK4 = biological target: T3, GRK4 (Homo sapiens, UniProt P32298); assay: Kinase selectivity test (ThermoFisher); assay type: biochemical; design: concentration or dose not given beside the values
T3 construct: purchased ThermoFisher USA (contract testing)
Protocol: as §1, §2, §3, §4, §5

GSK3A (GSK3 alpha) = biological target: T4, GSK3A (GSK3 alpha) (Homo sapiens, UniProt P49840); assay: Kinase selectivity test (ThermoFisher); assay type: biochemical; design: concentration or dose not given beside the values
T4 construct: purchased ThermoFisher USA (contract testing)
Protocol: as §1, §2, §3, §4, §5

GSK3B (GSK3 beta) = biological target: T5, GSK3B (GSK3 beta) (Homo sapiens, UniProt P49841); assay: Kinase selectivity test (ThermoFisher); assay type: biochemical; design: concentration or dose not given beside the values
T5 construct: purchased ThermoFisher USA (contract testing)
Protocol: as §1, §2, §3, §4, §5

JAK2 = biological target: T6, JAK2 (Homo sapiens, UniProt O60674); assay: Kinase selectivity test (ThermoFisher); assay type: biochemical; design: concentration or dose not given beside the values
T6 construct: purchased ThermoFisher USA (contract testing)
Protocol: as §1, §2, §3, §4, §5

SGK (SGK1) = biological target: T7, SGK (SGK1) (Homo sapiens, UniProt O00141); assay: Kinase selectivity test (ThermoFisher); assay type: biochemical; design: concentration or dose not given beside the values
T7 construct: purchased ThermoFisher USA (contract testing)
T7 sequence (O00141 1-431): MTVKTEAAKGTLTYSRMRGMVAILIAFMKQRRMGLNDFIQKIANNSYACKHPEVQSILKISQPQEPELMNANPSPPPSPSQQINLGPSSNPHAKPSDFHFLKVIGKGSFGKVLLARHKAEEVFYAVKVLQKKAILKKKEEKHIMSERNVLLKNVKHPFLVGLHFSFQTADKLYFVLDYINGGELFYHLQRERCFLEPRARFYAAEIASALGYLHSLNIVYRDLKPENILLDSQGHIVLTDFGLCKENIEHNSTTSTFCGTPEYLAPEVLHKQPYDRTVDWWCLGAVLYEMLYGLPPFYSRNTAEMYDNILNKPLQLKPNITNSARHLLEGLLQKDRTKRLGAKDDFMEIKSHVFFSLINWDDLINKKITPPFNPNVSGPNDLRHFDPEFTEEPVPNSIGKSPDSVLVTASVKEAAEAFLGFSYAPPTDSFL
Protocol: as §1, §2, §3, §4, §5

[3] = mouse, in vivo, female Balb/c mice, PO, 10 mg/kg, blood (TNO-155: plasma)
[4] = mouse, whole blood (TNO-155: plasma), female Balb/c mice, PO, 10 mg/kg, blood (TNO-155: plasma)

T5 sequence (P49841 whole entry): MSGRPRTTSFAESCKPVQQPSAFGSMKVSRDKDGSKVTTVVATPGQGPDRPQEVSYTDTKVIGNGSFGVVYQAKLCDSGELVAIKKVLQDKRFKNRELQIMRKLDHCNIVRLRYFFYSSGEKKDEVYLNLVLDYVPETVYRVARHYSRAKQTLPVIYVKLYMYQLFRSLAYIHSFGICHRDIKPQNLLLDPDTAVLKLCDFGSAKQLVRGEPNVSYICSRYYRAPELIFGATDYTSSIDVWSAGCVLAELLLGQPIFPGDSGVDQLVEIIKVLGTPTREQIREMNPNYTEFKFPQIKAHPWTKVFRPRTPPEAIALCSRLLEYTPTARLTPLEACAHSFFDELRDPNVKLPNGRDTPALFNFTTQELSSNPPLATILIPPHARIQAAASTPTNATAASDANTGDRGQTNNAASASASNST
T4 sequence (P49840 whole entry): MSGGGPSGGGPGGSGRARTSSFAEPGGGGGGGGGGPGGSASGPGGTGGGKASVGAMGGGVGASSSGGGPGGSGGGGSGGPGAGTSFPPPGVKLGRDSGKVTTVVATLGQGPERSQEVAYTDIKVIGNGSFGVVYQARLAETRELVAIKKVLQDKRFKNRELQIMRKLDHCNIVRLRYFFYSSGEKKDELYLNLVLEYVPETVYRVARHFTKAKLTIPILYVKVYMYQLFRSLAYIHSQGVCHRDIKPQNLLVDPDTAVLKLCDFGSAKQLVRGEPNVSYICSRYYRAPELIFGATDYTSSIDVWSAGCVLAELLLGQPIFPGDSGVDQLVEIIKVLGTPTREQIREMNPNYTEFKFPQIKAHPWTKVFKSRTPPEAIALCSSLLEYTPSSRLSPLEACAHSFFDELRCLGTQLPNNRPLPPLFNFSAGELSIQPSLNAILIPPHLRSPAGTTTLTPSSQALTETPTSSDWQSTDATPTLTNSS
T2 sequence (P49336 whole entry): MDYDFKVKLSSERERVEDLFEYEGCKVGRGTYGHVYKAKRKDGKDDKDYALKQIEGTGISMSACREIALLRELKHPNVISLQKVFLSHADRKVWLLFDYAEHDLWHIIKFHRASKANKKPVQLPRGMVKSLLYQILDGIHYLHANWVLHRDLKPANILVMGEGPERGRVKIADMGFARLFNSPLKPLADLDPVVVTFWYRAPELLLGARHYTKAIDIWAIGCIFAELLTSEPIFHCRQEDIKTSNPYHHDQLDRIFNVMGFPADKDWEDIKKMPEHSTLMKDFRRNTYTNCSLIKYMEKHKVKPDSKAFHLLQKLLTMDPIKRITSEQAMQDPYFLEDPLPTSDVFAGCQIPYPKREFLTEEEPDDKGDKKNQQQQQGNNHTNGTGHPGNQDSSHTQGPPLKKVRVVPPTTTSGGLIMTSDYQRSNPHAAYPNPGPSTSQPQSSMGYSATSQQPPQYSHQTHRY
T2 sequence (P24863 whole entry partner): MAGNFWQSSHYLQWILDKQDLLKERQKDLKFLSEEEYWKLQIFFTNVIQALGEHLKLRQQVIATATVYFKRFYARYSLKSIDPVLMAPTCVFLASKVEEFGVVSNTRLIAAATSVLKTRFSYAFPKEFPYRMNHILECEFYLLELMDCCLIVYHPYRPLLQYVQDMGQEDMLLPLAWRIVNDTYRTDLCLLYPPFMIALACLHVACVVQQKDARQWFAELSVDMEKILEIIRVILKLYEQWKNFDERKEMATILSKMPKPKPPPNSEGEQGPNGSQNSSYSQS
T1 sequence (Q14012 whole entry): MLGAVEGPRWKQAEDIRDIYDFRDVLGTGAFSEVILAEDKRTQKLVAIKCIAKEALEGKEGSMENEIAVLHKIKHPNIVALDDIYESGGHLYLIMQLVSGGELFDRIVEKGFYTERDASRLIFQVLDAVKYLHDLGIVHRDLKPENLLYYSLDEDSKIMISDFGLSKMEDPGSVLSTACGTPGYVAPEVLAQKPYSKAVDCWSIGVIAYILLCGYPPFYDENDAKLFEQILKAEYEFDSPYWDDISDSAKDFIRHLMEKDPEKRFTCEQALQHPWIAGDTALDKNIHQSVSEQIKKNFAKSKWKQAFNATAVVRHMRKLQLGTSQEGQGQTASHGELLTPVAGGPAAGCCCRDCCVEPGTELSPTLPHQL
T6 sequence (O60674 whole entry): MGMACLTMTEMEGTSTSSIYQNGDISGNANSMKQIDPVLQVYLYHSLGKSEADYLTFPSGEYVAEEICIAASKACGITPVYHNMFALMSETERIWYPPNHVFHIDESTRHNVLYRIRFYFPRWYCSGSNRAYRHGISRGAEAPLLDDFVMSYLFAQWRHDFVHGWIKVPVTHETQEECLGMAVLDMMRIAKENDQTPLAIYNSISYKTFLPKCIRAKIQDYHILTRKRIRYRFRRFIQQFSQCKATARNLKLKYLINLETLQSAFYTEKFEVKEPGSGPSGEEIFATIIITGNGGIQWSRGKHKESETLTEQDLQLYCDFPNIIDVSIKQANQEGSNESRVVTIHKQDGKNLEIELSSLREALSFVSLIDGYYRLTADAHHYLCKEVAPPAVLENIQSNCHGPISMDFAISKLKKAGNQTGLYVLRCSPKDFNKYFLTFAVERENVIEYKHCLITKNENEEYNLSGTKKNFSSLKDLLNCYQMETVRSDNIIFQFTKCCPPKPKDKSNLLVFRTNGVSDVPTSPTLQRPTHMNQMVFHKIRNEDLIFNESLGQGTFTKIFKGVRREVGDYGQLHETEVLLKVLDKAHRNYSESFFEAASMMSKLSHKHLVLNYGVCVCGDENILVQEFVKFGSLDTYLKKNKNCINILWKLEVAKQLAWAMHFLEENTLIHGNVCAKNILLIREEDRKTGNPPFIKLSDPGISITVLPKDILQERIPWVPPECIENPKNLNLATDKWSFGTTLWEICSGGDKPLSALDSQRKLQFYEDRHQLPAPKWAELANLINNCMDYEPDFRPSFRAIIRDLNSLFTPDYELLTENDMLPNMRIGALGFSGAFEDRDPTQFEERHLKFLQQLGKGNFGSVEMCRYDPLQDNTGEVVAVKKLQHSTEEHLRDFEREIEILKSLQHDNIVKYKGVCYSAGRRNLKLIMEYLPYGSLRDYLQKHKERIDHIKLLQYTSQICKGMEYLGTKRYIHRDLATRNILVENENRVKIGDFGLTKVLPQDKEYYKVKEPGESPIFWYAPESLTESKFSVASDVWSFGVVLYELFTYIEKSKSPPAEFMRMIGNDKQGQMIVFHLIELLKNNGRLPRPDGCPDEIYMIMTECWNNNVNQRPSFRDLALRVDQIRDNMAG
T3 sequence (P32298 whole entry): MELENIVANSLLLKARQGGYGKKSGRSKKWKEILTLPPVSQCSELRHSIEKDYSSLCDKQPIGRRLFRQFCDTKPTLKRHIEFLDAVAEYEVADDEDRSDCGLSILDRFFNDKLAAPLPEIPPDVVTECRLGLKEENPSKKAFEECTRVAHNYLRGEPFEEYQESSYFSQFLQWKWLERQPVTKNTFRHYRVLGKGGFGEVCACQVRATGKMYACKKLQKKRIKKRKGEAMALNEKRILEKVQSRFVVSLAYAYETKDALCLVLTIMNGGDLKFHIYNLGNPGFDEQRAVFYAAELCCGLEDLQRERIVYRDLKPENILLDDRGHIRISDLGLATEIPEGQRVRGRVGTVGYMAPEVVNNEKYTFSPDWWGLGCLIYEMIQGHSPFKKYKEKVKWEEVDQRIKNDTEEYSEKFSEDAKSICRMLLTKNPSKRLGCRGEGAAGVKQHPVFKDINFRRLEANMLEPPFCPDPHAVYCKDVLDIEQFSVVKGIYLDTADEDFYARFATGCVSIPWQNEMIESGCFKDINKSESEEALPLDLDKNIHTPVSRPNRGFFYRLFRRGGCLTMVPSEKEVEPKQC

C[C@@H]1OCC2(CCN(c3ncc(Sc4ccnc(N5CC(C(C)(C)O)C5)c4Cl)nc3CO)CC2)[C@@H]1N [Example 12, 2-(1-(4-(5-((3S,4S)-4-amino-3-methyl-2-oxa-8-azaspiro[4.5]decan-8-yl)-6-(hydroxymethyl)pyrazin-2-ylthio)-3-chloropyridin-2-yl)azetidin-3-yl)propan-2-ol]
pharmacokinetic properties (in words) ([1]; Balb/c mice, 1 mg/kg by injection and 10 mg/Kg by mouth): excellent pharmacokinetic properties
AUC(0-t) ([1]; mouse, in vivo, female Balb/c mice, IV, 1 mg/kg, blood (TNO-155: plasma)): 2590 ng·h/mL
clearance ([1]; mouse, in vivo, female Balb/c mice, IV, 1 mg/kg, blood (TNO-155: plasma), read-out: Cl): 6.23 mL/min/kg
AUC(0-t) [1, 3]: 12300 ng·h/mL
half-life [1, 3]: 7.13 h
pharmacokinetic properties (in words) ([2]; beagle dog, 0.5 mg/kg by injection and 2.5 mg/Kg by mouth): excellent pharmacokinetic properties
AUC(0-t) ([2]; in vivo, IV, 0.5 mg/kg): 3090 ng·h/mL
clearance ([2]; in vivo, IV, 0.5 mg/kg): 2.31 mL/min/kg
AUC(0-t) ([2]; in vivo, PO, 2.5 mg/kg): 11000 ng·h/mL
half-life ([2]; in vivo, PO, 2.5 mg/kg): 24.5 h
Inhibition (%) Target 1 (CAMK1 (CaMK1)): −9%
Inhibition (%) Target 2 (CAMK1 (CaMK1)): −16%
Inhibition (%) Mean value (CAMK1 (CaMK1)): −12%
Inhibition (%) Target 1 (CDK8/ cyclin C): 7%
Inhibition (%) Target 2 (CDK8/ cyclin C): −3%
Inhibition (%) Mean value (CDK8/ cyclin C): 2%
Inhibition (%) Target 1 (GRK4): 9%
Inhibition (%) Target 2 (GRK4): 7%
Inhibition (%) Mean value (GRK4): 8%
Inhibition (%) Target 1 (GSK3A (GSK3 alpha)): 9%
Inhibition (%) Target 2 (GSK3A (GSK3 alpha)): 8%
Inhibition (%) Mean value (GSK3A (GSK3 alpha)): 8%
Inhibition (%) Target 1 (GSK3B (GSK3 beta)): 7%
Inhibition (%) Target 2 (GSK3B (GSK3 beta)): 7%
Inhibition (%) Mean value (GSK3B (GSK3 beta)): 7%
Inhibition (%) Target 1 (JAK2): −7%
Inhibition (%) Target 2 (JAK2): −2%
Inhibition (%) Mean value (JAK2): −4%
Inhibition (%) Target 1 (SGK (SGK1)): 1%
Inhibition (%) Target 2 (SGK (SGK1)): 2%
Inhibition (%) Mean value (SGK (SGK1)): 1%

C[C@@H]1OCC2(CCN(c3cnc(Sc4ccnc(N)c4Cl)c(N)n3)CC2)[C@@H]1N [TNO-155, reference compound]
Cl ([1]; female Balb/c mice, IV, 1 mg/kg, blood (TNO-155: plasma)): 24 mL/min/kg
AUC(0-t) ([1]; mouse, whole blood (TNO-155: plasma), female Balb/c mice, IV, 1 mg/kg, blood (TNO-155: plasma)): 672 ng·h/mL
AUC(0-t) [1, 4]: 7910 ng·h/mL
half-life [1, 4]: 1.69 h
AUC(0-t) ([2]; IV, 0.5 mg/kg): 2350 ng·h/mL
clearance ([2]; IV, 0.5 mg/kg): 3.43 mL/min/kg
AUC(0-t) ([2]; PO, 2.5 mg/kg): 10100 ng·h/mL
half-life ([2]; PO, 2.5 mg/kg): 13.2 h
Inhibition (%) Target 1 (CAMK1 (CaMK1)): 55%
Inhibition (%) Target 2 (CAMK1 (CaMK1)): 46%
Inhibition (%) Mean value (CAMK1 (CaMK1)): 51%
Inhibition (%) Target 1 (CDK8/ cyclin C): 89%
Inhibition (%) Target 2 (CDK8/ cyclin C): 89%
Inhibition (%) Mean value (CDK8/ cyclin C): 89%
Inhibition (%) Target 1 (GRK4): 96%
Inhibition (%) Target 2 (GRK4): 95%
Inhibition (%) Mean value (GRK4): 95%
Inhibition (%) Target 1 (GSK3A (GSK3 alpha)): 92%
Inhibition (%) Target 2 (GSK3A (GSK3 alpha)): 87%
Inhibition (%) Mean value (GSK3A (GSK3 alpha)): 90%
Inhibition (%) Target 1 (GSK3B (GSK3 beta)): 96%
Inhibition (%) Target 2 (GSK3B (GSK3 beta)): 96%
Inhibition (%) Mean value (GSK3B (GSK3 beta)): 96%
Inhibition (%) Target 1 (JAK2): 61%
Inhibition (%) Target 2 (JAK2): 57%
Inhibition (%) Mean value (JAK2): 59%
Inhibition (%) Target 1 (SGK (SGK1)): 62%
Inhibition (%) Target 2 (SGK (SGK1)): 57%
Inhibition (%) Mean value (SGK (SGK1)): 60%
